# In ChEMBL document CHEMBL1138159, “Enantiomer discrimination illustrated by the high resolution crystal structures of type 4 phosphodiesterase” (J Med Chem, 2006):
# Experiments:
# [1] = target: T1, 3',5'-cyclic-AMP phosphodiesterase 4A (Homo sapiens, UniProt P27815); assay: Inhibition of PDE4A with respect to increase in cAMP concentration
# [2] = target: T1, 3',5'-cyclic-AMP phosphodiesterase 4A; assay: Inhibition of PDE4A
# [3] = target: 3',5'-cyclic-AMP phosphodiesterase 4C (Homo sapiens, UniProt Q08493); assay: Inhibition of PDE4C
# [4] = target: 3',5'-cyclic-AMP phosphodiesterase 4B (Homo sapiens, UniProt Q07343); assay: Inhibition of PDE4B
# 3',5'-cyclic-AMP phosphodiesterase 4B, sequence (Q07343 whole entry): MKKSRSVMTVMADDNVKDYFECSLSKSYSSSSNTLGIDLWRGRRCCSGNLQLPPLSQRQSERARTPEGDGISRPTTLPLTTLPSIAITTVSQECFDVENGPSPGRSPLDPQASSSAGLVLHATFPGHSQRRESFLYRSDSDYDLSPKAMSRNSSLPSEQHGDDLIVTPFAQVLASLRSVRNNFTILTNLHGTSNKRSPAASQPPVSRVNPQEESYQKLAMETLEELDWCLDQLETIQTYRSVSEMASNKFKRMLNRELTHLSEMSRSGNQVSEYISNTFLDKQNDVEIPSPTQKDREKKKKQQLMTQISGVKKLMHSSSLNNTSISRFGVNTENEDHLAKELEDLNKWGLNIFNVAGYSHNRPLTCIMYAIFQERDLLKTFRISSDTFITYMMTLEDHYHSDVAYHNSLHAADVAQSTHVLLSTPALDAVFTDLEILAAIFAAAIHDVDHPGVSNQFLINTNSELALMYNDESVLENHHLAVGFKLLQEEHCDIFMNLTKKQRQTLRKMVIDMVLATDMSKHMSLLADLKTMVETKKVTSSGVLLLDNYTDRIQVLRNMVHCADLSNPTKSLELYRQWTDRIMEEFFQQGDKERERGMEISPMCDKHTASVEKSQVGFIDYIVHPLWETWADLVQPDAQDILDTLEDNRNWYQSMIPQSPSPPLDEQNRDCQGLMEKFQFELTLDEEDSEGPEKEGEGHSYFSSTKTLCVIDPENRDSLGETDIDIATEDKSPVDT
# T1 sequence (P27815 whole entry): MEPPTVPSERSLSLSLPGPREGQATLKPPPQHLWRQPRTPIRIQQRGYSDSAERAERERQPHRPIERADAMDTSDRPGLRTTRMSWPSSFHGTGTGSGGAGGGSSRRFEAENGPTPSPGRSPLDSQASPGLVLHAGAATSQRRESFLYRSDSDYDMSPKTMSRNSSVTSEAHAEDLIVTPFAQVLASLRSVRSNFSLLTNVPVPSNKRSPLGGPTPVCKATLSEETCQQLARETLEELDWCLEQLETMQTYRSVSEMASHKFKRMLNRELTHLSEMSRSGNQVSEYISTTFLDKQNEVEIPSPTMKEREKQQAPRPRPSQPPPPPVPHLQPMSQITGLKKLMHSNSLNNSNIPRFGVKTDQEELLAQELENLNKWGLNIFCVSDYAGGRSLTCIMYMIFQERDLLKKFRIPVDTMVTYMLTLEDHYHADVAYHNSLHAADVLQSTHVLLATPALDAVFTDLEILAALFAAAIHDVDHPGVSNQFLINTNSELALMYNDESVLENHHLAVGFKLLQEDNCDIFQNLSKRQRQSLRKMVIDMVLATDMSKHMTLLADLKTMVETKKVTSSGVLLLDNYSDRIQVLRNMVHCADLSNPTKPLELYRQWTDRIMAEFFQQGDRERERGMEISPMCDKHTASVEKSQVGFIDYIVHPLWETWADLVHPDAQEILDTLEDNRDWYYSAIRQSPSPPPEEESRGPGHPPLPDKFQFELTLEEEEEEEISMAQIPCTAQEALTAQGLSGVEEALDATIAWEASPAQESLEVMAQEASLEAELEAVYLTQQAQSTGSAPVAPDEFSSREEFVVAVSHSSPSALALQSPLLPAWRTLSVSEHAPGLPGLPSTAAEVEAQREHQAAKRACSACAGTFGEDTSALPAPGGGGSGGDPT
# 3',5'-cyclic-AMP phosphodiesterase 4C, sequence (Q08493 whole entry): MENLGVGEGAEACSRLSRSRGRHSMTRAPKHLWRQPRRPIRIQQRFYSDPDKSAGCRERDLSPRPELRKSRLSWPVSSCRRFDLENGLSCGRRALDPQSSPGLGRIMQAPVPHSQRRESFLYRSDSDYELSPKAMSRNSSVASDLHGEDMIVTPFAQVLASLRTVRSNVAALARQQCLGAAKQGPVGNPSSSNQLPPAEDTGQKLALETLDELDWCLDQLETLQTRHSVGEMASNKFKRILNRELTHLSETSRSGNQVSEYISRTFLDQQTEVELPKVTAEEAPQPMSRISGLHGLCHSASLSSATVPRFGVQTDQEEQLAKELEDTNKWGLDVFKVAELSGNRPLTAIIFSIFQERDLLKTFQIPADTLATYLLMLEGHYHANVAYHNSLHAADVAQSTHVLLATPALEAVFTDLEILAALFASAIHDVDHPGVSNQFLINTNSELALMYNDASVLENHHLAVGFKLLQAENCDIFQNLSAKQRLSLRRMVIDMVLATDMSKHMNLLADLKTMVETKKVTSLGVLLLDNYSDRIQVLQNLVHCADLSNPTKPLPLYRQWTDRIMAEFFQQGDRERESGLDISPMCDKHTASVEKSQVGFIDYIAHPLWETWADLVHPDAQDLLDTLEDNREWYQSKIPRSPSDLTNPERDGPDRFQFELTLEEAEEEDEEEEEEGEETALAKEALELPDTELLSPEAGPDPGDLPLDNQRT
Ki [1],IC50 [2],IC50 [3],IC50 [4],Structure (SMILES)
0.43 nM,–,–,–,[O-][n+]1cccc(C[C@@H](c2ccc(OC(F)F)c(OC3CC3)c2)c2cnc(C(O)(C(F)(F)F)C(F)(F)F)s2)c1
–,56 nM,135 nM,40 nM,[O-][n+]1cccc(C[C@H](c2ccc(OC(F)F)c(OC3CC3)c2)c2cnc(C(O)(C(F)(F)F)C(F)(F)F)s2)c1
